Tested on: influenza
Design: species or system mice
Conditions: mouse, in vivo

With GLA the “Th1 T cell responses (antigen-specific IgG2a titers and IFNγ production)” value was “dramatic increase in antigen-specific IgG2a titers and IFNγ production”.
